Data as given in US20120015961A1, “ISOTHIOUREA DERIVATIVES OR ISOUREA DERIVATIVES HAVING BACE1 INHIBITORY ACTIVITY” (SHIONOGI & CO., LTD., priority 2009, published 2012).

Assays:
[1] = target: T1, Recombinant human BACE1 (Homo sapiens, UniProt P56817); experiment: Assay of BACE1 inhibiting activity; assay type: biochemical; conditions: 50% inhibitory concentration against enzymatic activity, pH 5.0, 30° C., 3 hours
T1 construct: purchased R&D Systems
Outline: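 Recombinant human BACE1 (7.4 nM) incubated with 18 nM biotinylated Eu-cryptate peptide substrate in pH 5.0 sodium acetate, 3 h at 30 °C. Streptavidin-XL665 added, 1 h; TR-FRET 665/620 nm ratio gives activity, from which IC50 is calculated.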

[2] = system: Neuroblastoma SH-SY5Y cells (SH/APPwt) with human wild-type β-APP excessively expressed; experiment: Measurement of β-amyloid (Aβ) production inhibitory effect in cell; assay type: cell-based; conditions: Homo sapiens, SH-SY5Y, 24 h, amount needed to inhibit Aβ production by 50%, 24 hours incubation, Amyloid β1-40 HTRF
Outline: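 SH-SY5Y cells overexpressing human wild-type β-APP exposed to compound for 24 h at 37 °C in 1% final DMSO. Secreted Aβ1-40 in supernatant measured by HTRF (overnight at 4 °C; 665/620 nm ratio). IC50 derived from at least six concentrations.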

[3] = system: Salmonella typhimurium (TA98 and TA100 strain); experiment: FAT test; assay type: cell-based; set-up: key: (−) means that mutagenicity is negative; (+) means positive; conditions: TA98 and TA100, with and without metabolic activation system
Protocol: Each 20 μL of freeze-stored Salmonella typhimurium (TA98 and TA100 strain) was inoculated in 10 mL of liquid nutrient medium (2.5% Oxoid nutrient broth No. 2), and the cultures were incubated at 37° C. under shaking for 10 hours. 9 mL of TA98 culture was centrifuged (2000×g, 10 minutes) to remove medium, and the bacteria was suspended in 9 mL of Micro F buffer (K2HPO4: 3.5 g/L, KH2PO4: 1 g/L, (NH4)2SO4: 1 g/L, trisodium citrate dehydrate: 0.25 g/L, MgSO4.7H2O: 0.1 g/L), and the suspension was added to 110 mL of Exposure medium (Micro F buffer containing Biotin: 8 μg/mL, histidine: 0.2 μg/mL, glucose: 8 mg/mL). 3.16 mL of TA100 culture was added to 120 mL of Exposure medium to prepare the test bacterial solution. […] The number of the yellow wells among the 48 total wells per dose was counted, and evaluated the mutagenicity by comparing with the negative control group. […]

T1 sequence (P56817 46-501): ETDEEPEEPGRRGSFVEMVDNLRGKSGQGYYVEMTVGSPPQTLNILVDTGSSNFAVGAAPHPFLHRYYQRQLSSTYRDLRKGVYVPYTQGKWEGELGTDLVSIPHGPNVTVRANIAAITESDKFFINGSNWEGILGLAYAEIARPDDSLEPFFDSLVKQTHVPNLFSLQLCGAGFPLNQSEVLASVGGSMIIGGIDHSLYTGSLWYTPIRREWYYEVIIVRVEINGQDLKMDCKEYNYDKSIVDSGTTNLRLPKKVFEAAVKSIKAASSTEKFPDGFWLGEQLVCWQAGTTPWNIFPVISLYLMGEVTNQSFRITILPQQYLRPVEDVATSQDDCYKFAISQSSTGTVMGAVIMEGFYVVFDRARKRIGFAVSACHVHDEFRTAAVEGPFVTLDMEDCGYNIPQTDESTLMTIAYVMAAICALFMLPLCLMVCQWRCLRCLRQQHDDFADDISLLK

## CO/C(N)=N\C1(c2cccc(NC(=O)c3ccc(C#N)cn3)c2)CC1 [Compound 44]
[1]
  IC50: ≤ 1 µM
[2]
  IC50: ≤ 1 µM
[3]
  mutagenicity: (−)
